Literature values, collected in article PMC4959752, “Pharmacokinetics in Wistar Rats of 5-[(4-Carboxybutanoyl)Amino]-2-Hydroxybenzoic Acid: A Novel Synthetic Derivative of 5-Aminosalicylic Acid (5-ASA) with Possible Anti-Inflammatory Activity” (PLoS ONE, 2016).

How the values were obtained:
plasma protein = conditions: comparison value; cited from earlier work
[1] = literature value; cited from earlier work

Compound | protein binding (plasma protein) [%] | plasma half-life [1] [min]
Nc1ccc(O)c(C(=O)O)c1 [5-ASA, 5-aminosalicylic acid] | 40 | –
CC(=O)Oc1ccccc1C(=O)O [aspirin] | – | 15
